The numbers were not newly measured in US20250255843A1, “COMPOSITIONS COMPRISING CYSTEINE PRODRUGS AND METHODS USING THEREOF” (Nature's Fusions, LLC, priority 2022, published 2025), which cites them from elsewhere.

The conditions of data set [1]: cell membrane.
For data set [2] the following is noted: in vivo.
The conditions of data set [3]: oral; metabolized in liver and kidney.
For data set [4] the following is noted: more stable than cysteine.
For the next data set, the system named is oxidative damage. To be noted: relative to NAC.

On to `CC(=O)N[C@@H](CS)C(=O)O` [NAC, N-acetyl L-cysteine], for which the increase of plasma with plasma GSH (medium to high doses (up to 8 g/day)) was 5-20%. In addition, the membrane penetration entry in data set [1] is on record as “poorly membrane penetrable”. Further, in data set [2], the bioavailability is on record as 4-6%. Besides, the detectability in plasma result in data set [3] is reported as “almost undetectable in plasma”. Also, the “stability relative to cysteine” value in data set [4] is “about 10 times”.
Take `CCOC(=O)[C@H](CS)NC(C)=O` [NACET, N-acetyl L-cysteine ethyl ester]: the “increase of plasma GSH” value with plasma GSH (lower than 8 g/day doses) is 250%. Further, the membrane penetration result in data set [1] is “cell-permeable”. In addition, in data set [2], the bioavailability is 60-80%. Also, the “protective agent against oxidative damage, concentration lower than that of NAC” value with oxidative damage was 5-10 times.
